Structures are written as SMILES. Where a name gives a salt, the structure may show the parent alone.

The test system of the assay is fecal microbial communities (OTUs). The experiment in a line: Microbiome Modulation Index (MMI) from 16S rRNA V4 profiling of fecal samples before and after agent administration. It counts as in vivo, c57bl/6 mice. To be noted: oral gavage daily for 5 consecutive days at Table 1 mouse dose; day 0 vs day 5 fecal samples; MMI = d/d0 relative to control mice; variability weight gi applied. Here is the method: Twenty five agents were selected to span multiple indications (Table 1). For each agent, the effective dose for the mouse was determined through a comprehensive search of the literature (Table 1). Working formulations were created by suspending agents in 1× phosphate buffered saline (PBS).
A total of 156 six-week old c57bl/6 mice (78 males and 78 females) were housed in separate cages 5 days prior to agent administration. Animals were handled daily by caretakers during this acclimation period. Animals were fed a standard chow diet throughout the course of the study.
Animals were treated with agents via oral gavage daily for 5 consecutive days beginning on day 1. N=6 mice per agent; 3 male+3 female. Fecal samples were collected using the ‘clean catch’ method in which the mice were held by the tail, causing them to defecate. Feces were collected in a sterile tube and immediately frozen and stored at −80° C. Fecal samples were collected in the morning prior to agent administration on the following days: −1,0,4,5.
Frozen day 0 and day 5 fecal specimens corresponding to 15 treatment groups (PBS+(Table 3) were profiled using Second Genome's Microbiome Signature Discovery™ service (San Bruno, Calif.). DNA was isolated using the PowerSoil DNA Isolation Kit following the manufacturer's instructions (MoBio Laboratories, Carlsbad, Calif.). For V4 sequencing assay profiling, the V4 region of the 16S rRNA genes was amplified using fusion primers tailed with Illumina sequencing adapters and indexing barcodes according to a previously described technique (Caporaso, 2010, PMID: 20534432). For each sample, amplified products were concentrated, purified and quantified by electrophoresis using an Agilent 2100 Bioanalyzer, then pooled for sequencing using the MiSeq (Illumina, San Diego, Calif.) instrument.
Using the software QIIME (Kuczynski, 2012, PMID: 23184592) and custom scripts, sequences were quality filtered and de-multiplexed using exact matches to the supplied DNA barcodes. Resulting sequences were then clustered into reference OTUs (rOTUs) by uclust (Edgar, 2010, PMID: 20709691) matching each sequence against the Greengenes sequences pre-clustered at 97%, a practice commonly referred to as “closed-reference OTU picking”. The longest Illumina-generated sequence from each of OTUs thus formed was then used as the OTU representative sequence, and assigned taxonomic classification via mothur's bayesian classifier (Schloss, 2009, PMID: 19801464) trained against the Greengenes database. Taxonomic annotations at 80% bootstrapped confidence were applied. Total sequence counts per fecal sample were scaled to be identical. Seven samples (MDO5M027D0, MD10M057D0, Md12F07D0, MD01F006D5, MD06F035D5, MD13M074D5, and MD04F023D5) were excluded following sequence quality filtering and alignment due to low sequence yield. Taxa were filtered to those present in at least one of the samples.
MMIs were calculated for the PBS control and 14 of the tested drugs. To calculate the MMI of an agent, an intermediate value d was calculated for each mouse administered with the respective agent. The abundance of each OTU before treatment in that mouse was compared to the abundance of that OTU after treatment as in exemplary Equation 11: […]
where A1i represents the abundance of OTU i at time-point 1 (post-administration), where A0i represents the abundance of OTU i at time-point 0 (pre-administration) gi represents a variability weight applied to each OTU, discussed below.
Once d was calculated for each mouse, d values for each administered mouse are averaged, and the resulting d was compared to a reference level of change d0 in a control group of mice not administered the agent. The value d0 is determined on the basis of laboratory studies of untreated mice in similar conditions (e.g., a similar number of samples to the number of samples obtained from treated mice).
The MMI is then calculated as in exemplary Equation 12: […]
`CC(=O)Oc1ccccc1C(=O)O` [Acetylsiacylic_acid] displayed an MMI of 1.093.

`NCCCC(O)(P(=O)(O)O)P(=O)(O)O` [Alendronate_sodium_trihydrate] gave an MMI of 1.107.

Turning to `CC1(C)S[C@@H]2[C@H](NC(=O)[C@H](N)c3ccc(O)cc3)C(=O)N2[C@H]1C(=O)O` [Amoxycillin], the MMI is recorded as 2.397.

For `CC(C)c1c(C(=O)Nc2ccccc2)c(-c2ccccc2)c(-c2ccc(F)cc2)n1CC[C@@H](O)C[C@@H](O)CC(=O)O` [Atorvastatin_calcium_salt_trihydrate], the MMI was found to be 1.278.

Regarding `CC[C@H]1OC(=O)[C@H](C)[C@@H](O[C@H]2C[C@@](C)(OC)[C@@H](O)[C@H](C)O2)[C@H](C)[C@@H](O[C@@H]2O[C@H](C)C[C@H](N(C)C)[C@H]2O)[C@](C)(O)C[C@@H](C)CN(C)[C@H](C)[C@@H](O)[C@]1(C)O` [Azithromycin], the MMI is recorded as 2.202.

For `CCN(CC)CCOC(=O)C1(C2CCCCC2)CCCCC1` [Dicyloamine_hydrochloride], the MMI came to 1.222.

`CN(C)CCOC(c1ccccc1)c1ccccc1` [Diphenhydramine_hydrochloride] showed an MMI of 1.202.

As for `COc1ccc2[n-]c([S@@+]([O-])Cc3ncc(C)c(OC)c3C)nc2c1.COc1ccc2[n-]c([S@@+]([O-])Cc3ncc(C)c(OC)c3C)nc2c1.[Mg+2]` [Esomeprazole_magnesium_hydrate], the MMI worked out at 1.1.

In the case of `OC(Cn1cncn1)(Cn1cncn1)c1ccc(F)cc1F` [Fluconazole], the MMI turned out to be 1.003.

`CNCCC(Oc1ccc(C(F)(F)F)cc1)c1ccccc1` (centres unmarked) [Fluoxetine_hydrochloride] showed an MMI of 1.44.

As to `Nc1ccc(O)c(C(=O)O)c1` [Mesalamine], the MMI was determined as 1.131.

In turn, `CN(C)C(=N)N=C(N)N` [Metformin_hydrochloride] returned an MMI of 1.628.

In turn, `C[C@]12C=CC(=O)C=C1CC[C@@H]1[C@@H]2[C@@H](O)C[C@@]2(C)[C@H]1CC[C@]2(O)C(=O)COC(=O)CCC(=O)[O-].[Na+]` [Prednisalone_21-hemisuccinate_sodium_salt] returned an MMI of 1.262.

`Cc1ccc(-c2nc3ccc(C)cn3c2CC(=O)N(C)C)cc1` [Zolpidem_tartrate]: the MMI stood at 1.443.

Values taken from US20150337349A1, “Microbiome Modulation Index” (SECOND GENOME, INC., priority 2013, published 2015).
